System: PDC 899932-113-R3-J6 complex spheroid viability
Assay: Anticancer human tumor 899932-113-R3-J6-PDC patient-derived melanoma cell line growth inhibition [RAS]
Settings: for IC50: curve of first compound; for viability, T/C: stronger effect = lower value
Excerpt: RAS pathway inhibitors in Combinations in Complex Spheroids
A high-throughput screen of multi-cell type tumor spheroids was designed to identify active combinations of RAS pathway inhibitors and targeted small molecules. Complex spheroids include a stromal component modeled by human endothelial cells (HUVEC) and fibroblasts modeled by human mesenchymal stem cells (MSCs). The concentration ranges selected for each drug and investigational agent were based upon clinically achievable concentrations if the clinical Cmax of the agent was known.
Compounds. The drugs and investigational agents: abemaciclib (NSC768073), cobimetinib (NSC768068), divarasib (GDC6063, NSC841802), docetaxel (NSC628503), GDC-1971 (RLY-1971, NSC841576), gemcitabine (NSC613327), inavolisib (NSC800729), ipatasertib (NSC767898), KB-0742 (NSC834161), MRTX-1133 (NSC836407), osimertinib (NSC779217), RMC-4630 (NSC839698), RMC-6236 (NSC851965), RMC-6291 (NSC852671), Ro-3306 (NSC812927), sapanisertib (NSC764658), SN-38 (NSC673596), staurosporine (NSC755774), SY5609 (NSC837396), and tovorafenib (DAY101, NSC766906), were obtained from the National Cancer Institute (NCI) Developmental Therapeutics Program Chemical Repository. The FDA-approved anticancer drug set is available from the NCI Developmental Therapeutics Program. […] The stock solutions were prepared in dimethyl sulfoxide (DMSO, Sigma-Aldrich, St. Louis, MO, cat. D2650) at 800-fold the tested concentration and stored at -70 degrees C prior to their use. All drugs and investigational agents were tested over a range starting from a high concentration at or near the clinical Cmax and decreasing in half-log increments. If the clinical Cmax for an agent had not been determined, the highest concentration tested was 10 microM.
Cell Culture. All cells were maintained in an incubator at 37 degrees C and 5% CO2 with 95% humidity. The PDC lines were cultured according to standard operating procedures established by the NCI PDMR. All PDCs were thawed and cultured in Matrigel-coated flasks prepared with a working solution of 1X Ham's F-12 nutrient mix, without supplementation (Invitrogen, Waltham, MA, cat. 11765054), 100 U/mL penicillin-streptomycin (Invitrogen, cat. 15140122), and 2.5% Matrigel (Corning Inc., Corning, NY, cat. 354248) for the first three passages. The 362531-283-R-J2-PDC and 782815-120-R-J1-PDC lines were cultured in 6C/Colon 1B media, which includes advanced DMEM/F-12 (Thermo Fisher Scientific, cat. 12634028), 10 mM HEPES (Thermo Fisher Scientific, cat. 15630080), 1X GlutaMAX supplement (Thermo Fisher Scientific, cat. 35050061), 0.1 mg/mL primocin (InvivoGen, San Diego, CA, cat. ant-pm-2), 10% defined fetal bovine serum, heat inactivated (HyClone Laboratories Inc., Logan, UT, cat. SH30070.03HI), 50% L-WRN conditioned media (ATCC, cat. CRL-3276), 1.25 mM N-Acetyl-L-cysteine (Sigma-Aldrich, cat. A9165), 10 mM nicotinamide (Sigma-Aldrich, cat. N0636), 1X B-27 supplement (Thermo Fisher Scientific, cat. 17504044), 1X N-2 supplement (Thermo Fisher Scientific, cat. 17502048), 50 ng/mL human EGF (Thermo Fisher Scientific, cat. PHG0311), and 10 microM Y-27632 dihydrochloride (Tocris Bioscience, cat. 1254). The K12877-001-R-J1-PDC line was cultured in 6I media, which includes all 6C/Colon 1B media plus 10 ng/mL human FGF-10 (PeproTech, cat. 100-26), 1 ng/mL human FGF-2 (PeproTech, cat. 100-18B), 1 µM prostaglandin E2 (Tocris Bioscience, cat. 2296), […] hydrocortisone (Sigma-Aldrich, cat. H4001), and […] bovine insulin (Sigma-Aldrich, cat. I6634). The K86415-001-R-J1-PDC line was cultured in 6D media, which includes all 6C/Colon 1B media components minus the L-WRN conditioned media. The 485176-168-R4-J1-PDC was cultured in PANC media, which includes all 6C/Colon 1B media plus 100 ng/mL human FGF-10 (PeproTech, cat. 100-26), 500 nM SB-431542 (Selleckchem, cat. S1067), and 10 nM gastrin (Tocris Bioscience, cat. 3006). […]

[1] = second compound 0.0316 µM, first compound 0.0316 µM
[2] = second compound 0.0316 µM, first compound 0.1 µM
[3] = second compound 0.0316 µM, first compound 0.316 µM
[4] = second compound 0.0316 µM, first compound 1 µM
[5] = second compound 0.0316 µM, first compound 3.16 µM
[6] = second compound 0.0316 µM, first compound 10 µM
[7] = second compound 0.1 µM, first compound 0.0316 µM
[8] = second compound 0.1 µM, first compound 0.1 µM
[9] = second compound 0.1 µM, first compound 0.316 µM
[10] = second compound 0.1 µM, first compound 1 µM
[11] = second compound 0.1 µM, first compound 3.16 µM
[12] = second compound 0.1 µM, first compound 10 µM
[13] = second compound 0.316 µM, first compound 0.0316 µM
[14] = second compound 0.316 µM, first compound 0.1 µM
[15] = second compound 0.316 µM, first compound 0.316 µM
[16] = second compound 0.316 µM, first compound 1 µM
[17] = second compound 0.316 µM, first compound 3.16 µM
[18] = second compound 0.316 µM, first compound 10 µM
[19] = second compound 1 µM, first compound 0.0316 µM
[20] = second compound 1 µM, first compound 0.1 µM
[21] = second compound 1 µM, first compound 0.316 µM
[22] = second compound 1 µM, first compound 1 µM
[23] = second compound 1 µM, first compound 3.16 µM
[24] = second compound 1 µM, first compound 10 µM
[25] = second compound 3.16 µM, first compound 0.0316 µM
[26] = second compound 3.16 µM, first compound 0.1 µM
[27] = second compound 3.16 µM, first compound 0.316 µM
[28] = second compound 3.16 µM, first compound 1 µM
[29] = second compound 3.16 µM, first compound 3.16 µM
[30] = second compound 3.16 µM, first compound 10 µM
[31] = second compound 10 µM, first compound 0.0316 µM
[32] = second compound 10 µM, first compound 0.1 µM
[33] = second compound 10 µM, first compound 0.316 µM
[34] = second compound 10 µM, first compound 1 µM
[35] = second compound 10 µM, first compound 3.16 µM
[36] = second compound 10 µM, first compound 10 µM
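Throughout, for viability, T/C: spheroids exposed to agents for seven days before readout; 100% = DMSO vehicle control wells.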

CC(C)NCC(C(=O)N1CCN(c2ncnc3c2C(C)CC3O)CC1)c1ccc(Cl)cc1 (stereo unspecified) + C#Cc1c(F)ccc2cc(O)cc(-c3ncc4c(N5CC6CCC(C5)N6)nc(OCC56CCCN5CC(F)C6)nc4c3F)c12
IC50 (second compound 0.0316 µM): 5.47 µM | IC50 (second compound 0.1 µM): 5.82 µM | IC50 (second compound 0.316 µM): 7.53 µM | IC50 (second compound 1 µM): 7.94 µM | IC50 (second compound 3.16 µM): 8.55 µM | IC50 (second compound 10 µM): 6.45 µM | viability, T/C [1]: 99.5% | viability, T/C [2]: 113% | viability, T/C [3]: 103% | viability, T/C [4]: 76.9% | viability, T/C [5]: 67.4% | viability, T/C [6]: 34.8% | viability, T/C [7]: 108% | viability, T/C [8]: 109% | viability, T/C [9]: 97.3% | viability, T/C [10]: 86% | viability, T/C [11]: 68.9% | viability, T/C [12]: 34.4% | viability, T/C [13]: 105% | viability, T/C [14]: 115% | viability, T/C [15]: 93.7% | viability, T/C [16]: 99.6% | viability, T/C [17]: 72% | viability, T/C [18]: 42.5% | viability, T/C [19]: 110% | viability, T/C [20]: 105% | viability, T/C [21]: 107% | viability, T/C [22]: 94.8% | viability, T/C [23]: 83.1% | viability, T/C [24]: 41.5% | viability, T/C [25]: 110% | viability, T/C [26]: 120% | viability, T/C [27]: 97.6% | viability, T/C [28]: 101% | viability, T/C [29]: 80.7% | viability, T/C [30]: 44.8% | viability, T/C [31]: 125% | viability, T/C [32]: 112% | viability, T/C [33]: 101% | viability, T/C [34]: 88.5% | viability, T/C [35]: 79.6% | viability, T/C [36]: 33.7%

CC(C)n1nc(-c2ccc3oc(N)nc3c2)c2c(N)ncnc21 + C#Cc1c(F)ccc2cc(O)cc(-c3ncc4c(N5CC6CCC(C5)N6)nc(OCC56CCCN5CC(F)C6)nc4c3F)c12
IC50 (second compound 0.0316 µM): 0.0903 µM | IC50 (second compound 0.1 µM): > 0.1 µM | IC50 (second compound 0.316 µM): > 0.1 µM | IC50 (second compound 1 µM): > 0.1 µM | IC50 (second compound 3.16 µM): > 0.1 µM | IC50 (second compound 10 µM): > 0.1 µM | viability, T/C (second compound 0.0316 µM, first compound 0.000316 µM): 104% | viability, T/C (second compound 0.0316 µM, first compound 0.001 µM): 100% | viability, T/C (second compound 0.0316 µM, first compound 0.00316 µM): 105% | viability, T/C (second compound 0.0316 µM, first compound 0.01 µM): 91.8% | viability, T/C [1]: 68.2% | viability, T/C [2]: 48.1% | viability, T/C (second compound 0.1 µM, first compound 0.000316 µM): 114% | viability, T/C (second compound 0.1 µM, first compound 0.001 µM): 105% | viability, T/C (second compound 0.1 µM, first compound 0.00316 µM): 95.7% | viability, T/C (second compound 0.1 µM, first compound 0.01 µM): 100% | viability, T/C [7]: 73.4% | viability, T/C [8]: 52.5% | viability, T/C (second compound 0.316 µM, first compound 0.000316 µM): 103% | viability, T/C (second compound 0.316 µM, first compound 0.001 µM): 97.6% | viability, T/C (second compound 0.316 µM, first compound 0.00316 µM): 115% | viability, T/C (second compound 0.316 µM, first compound 0.01 µM): 100% | viability, T/C [13]: 76.4% | viability, T/C [14]: 50% | viability, T/C (second compound 1 µM, first compound 0.000316 µM): 104% | viability, T/C (second compound 1 µM, first compound 0.001 µM): 104% | viability, T/C (second compound 1 µM, first compound 0.00316 µM): 110% | viability, T/C (second compound 1 µM, first compound 0.01 µM): 96.5% | viability, T/C [19]: 75% | viability, T/C [20]: 52.4% | viability, T/C (second compound 3.16 µM, first compound 0.000316 µM): 116% | viability, T/C (second compound 3.16 µM, first compound 0.001 µM): 128% | viability, T/C (second compound 3.16 µM, first compound 0.00316 µM): 118% | viability, T/C (second compound 3.16 µM, first compound 0.01 µM): 112% | viability, T/C [25]: 85.9% | viability, T/C [26]: 51.6% | viability, T/C (second compound 10 µM, first compound 0.000316 µM): 115% | viability, T/C (second compound 10 µM, first compound 0.001 µM): 110% | viability, T/C (second compound 10 µM, first compound 0.00316 µM): 123% | viability, T/C (second compound 10 µM, first compound 0.01 µM): 115% | viability, T/C [31]: 85.8% | viability, T/C [32]: 50.7%

CC(Nc1ccc2c(c1)OCCn1cc(N3C(=O)OCC3C(F)F)nc1-2)C(N)=O (stereo unspecified) + C#Cc1c(F)ccc2cc(O)cc(-c3ncc4c(N5CC6CCC(C5)N6)nc(OCC56CCCN5CC(F)C6)nc4c3F)c12
IC50 (second compound 0.0316 µM): 1.78 µM | IC50 (second compound 0.1 µM): 2.61 µM | IC50 (second compound 0.316 µM): 2.44 µM | IC50 (second compound 1 µM): 2.24 µM | IC50 (second compound 3.16 µM): 4.56 µM | IC50 (second compound 10 µM): 2.76 µM | viability, T/C [1]: 88.4% | viability, T/C [2]: 87.2% | viability, T/C [3]: 58.2% | viability, T/C [4]: 58% | viability, T/C [5]: 47.4% | viability, T/C [6]: 30.6% | viability, T/C [7]: 88.8% | viability, T/C [8]: 78.6% | viability, T/C [9]: 70.1% | viability, T/C [10]: 57.3% | viability, T/C [11]: 51.7% | viability, T/C [12]: 35.1% | viability, T/C [13]: 97.7% | viability, T/C [14]: 83.3% | viability, T/C [15]: 66% | viability, T/C [16]: 63.5% | viability, T/C [17]: 49.2% | viability, T/C [18]: 33.8% | viability, T/C [19]: 93% | viability, T/C [20]: 76% | viability, T/C [21]: 64.9% | viability, T/C [22]: 61.5% | viability, T/C [23]: 44.2% | viability, T/C [24]: 39.8% | viability, T/C [25]: 101% | viability, T/C [26]: 76.6% | viability, T/C [27]: 71.4% | viability, T/C [28]: 65% | viability, T/C [29]: 60.9% | viability, T/C [30]: 38% | viability, T/C [31]: 102% | viability, T/C [32]: 90% | viability, T/C [33]: 70% | viability, T/C [34]: 63.9% | viability, T/C [35]: 52.5% | viability, T/C [36]: 32.5%

Source: PubChem BioAssay AID2060895 (Molecular Pharmacology Branch, DTP, NCI, 2025)
